Test results: article PMC11272821, “Mechanistic safety assessment via multi-omic characterisation of systemic pathway perturbations following in vivo MAT2A inhibition” (Archives of Toxicology, 2024)

Legend:
LogD (pH 7.4) = format: physicochemical
[1] = Rat plasma fraction unbound by rapid equilibrium dialysis; format: in vitro ADME
SAM = assay: Targeted LC–MS of SAM in plasma, liver, brain and heart; format: in vivo, rat
Protocol: SAM and methionine levels were quantified in plasma samples and tissues using Ultra Performance Liquid Chromatography (UPLC) coupled with quantitative MS in ESI positive ion mode as described in Supplementary M&M.
For LCMS analysis, standard curves were spiked to give a calibrated range of 1.0 – 1000 nM for SAM and 1.0 – 2000 for methionine. 5 µL of standard spike solution was added to 45 µL of ACN/MeOH/H2O (40/40/20 v/v/v) and 2.5 µL of deuterated citrulline is added as an internal standard. A further calibration curve was prepared with 5 µL blank mouse plasma, 5 µL of standard and 40 µL of 40:40:20 Acetonitrile:Methanol:0.5% formic acid (Aq) with 2.5 µL of deuterated citrulline was used to investigate matrix suppression effects. Blank plasma was also diluted 1:10 with ACN/MeOH/H2O (40/40/20 v/v/v) and was also analysed to establish systemic biomarker levels.
Metabolomic sample preparation and analysis. Tissue samples (liver, brain, heart) were extracted with 1 mL of ACN/MeOH/H2O 40/40/20 v/v/v per 100 mg material in a PrecellysCK28K-2 mL tube. Tissues were homogenised/extracted in 3x20 sec shake at 5500 rpm and centrifuged for 5 min at 10,621g. After centrifugation a maximum of 800 µL clear supernatant was transferred to cryovials and the same amount of extraction solvent used in the first step was added to tissue precipitate. Extraction procedure was repeated as above and clear supernatants combined in the same cryovial and vial labelled as polar metabolite extract. On the remaining tissue pellet 1ml (per100mg tissue material) of Butanol/MeOH 3/1v/v was added and the above extraction sequence applied. Resulted clear supernatant transferred to a clean cryovial and labelled as lipid extract. All samples kept at the lowest available temperature (0 °C) throughout the extraction process and stored at -80 °C until further analysis.

Aurora A kinase = molecular target: T1, Aurora A kinase (Homo sapiens, UniProt O14965); assay: Enzyme assay; format: biochemical
T1 construct: Eurofins
T1 sequence (O14965 whole entry): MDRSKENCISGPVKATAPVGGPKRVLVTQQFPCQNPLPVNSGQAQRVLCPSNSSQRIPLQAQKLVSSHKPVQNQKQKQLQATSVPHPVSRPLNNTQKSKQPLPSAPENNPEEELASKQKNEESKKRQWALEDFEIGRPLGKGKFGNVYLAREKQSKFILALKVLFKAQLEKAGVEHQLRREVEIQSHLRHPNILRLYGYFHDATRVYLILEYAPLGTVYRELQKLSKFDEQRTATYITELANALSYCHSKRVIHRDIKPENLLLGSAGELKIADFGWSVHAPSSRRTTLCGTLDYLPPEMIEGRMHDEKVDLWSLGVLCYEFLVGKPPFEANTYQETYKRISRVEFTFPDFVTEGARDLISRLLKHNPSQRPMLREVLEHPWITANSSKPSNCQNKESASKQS
Protocol: (§1) Secondary pharmacology assays were performed at Eurofins using standard experimental techniques against a total of 86 targets across a broad pharmacological space. Assay details along with experimental protocols are described at https://www.eurofinsdiscoveryservices.com. […] Assays measuring substrate turnover or phosphorylation by isolated proteins were used for kinase and enzyme targets, allowing direct determination of the mode of action of the compounds. […] Assays were run in eight points concentration response mode with half log dilutions and IC50, EC50 or Ki (Cheng and Prusoff [1973]) values determined.

[2] = molecular target: T2, Fibroblast growth factor receptor 1 kinase (FGFR1 kinase) (Homo sapiens, UniProt P11362); assay: Enzyme assay; format: biochemical
T2 construct: Eurofins
Protocol: as §1

[3] = molecular target: T3, Glycogen synthase kinase-3 β (Homo sapiens, UniProt P49841); assay: Enzyme assay; format: biochemical
T3 construct: Eurofins
T3 sequence (P49841 whole entry): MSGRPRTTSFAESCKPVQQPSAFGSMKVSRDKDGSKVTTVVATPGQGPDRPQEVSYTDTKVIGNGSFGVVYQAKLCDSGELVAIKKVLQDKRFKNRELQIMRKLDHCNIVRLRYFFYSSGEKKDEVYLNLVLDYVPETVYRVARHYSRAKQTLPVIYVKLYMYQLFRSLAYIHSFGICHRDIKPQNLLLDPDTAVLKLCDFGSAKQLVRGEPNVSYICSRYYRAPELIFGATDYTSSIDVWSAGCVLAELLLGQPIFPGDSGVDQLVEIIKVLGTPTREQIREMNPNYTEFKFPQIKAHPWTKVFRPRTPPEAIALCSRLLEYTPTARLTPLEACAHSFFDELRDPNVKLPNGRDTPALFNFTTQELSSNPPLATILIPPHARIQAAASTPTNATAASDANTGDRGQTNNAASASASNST
Protocol: as §1

[4] = molecular target: T4, Kinase insert domain receptor kinase (KDR) (Homo sapiens, UniProt P35968); assay: Enzyme assay; format: biochemical
T4 construct: Eurofins
T4 sequence (P35968 20-1356): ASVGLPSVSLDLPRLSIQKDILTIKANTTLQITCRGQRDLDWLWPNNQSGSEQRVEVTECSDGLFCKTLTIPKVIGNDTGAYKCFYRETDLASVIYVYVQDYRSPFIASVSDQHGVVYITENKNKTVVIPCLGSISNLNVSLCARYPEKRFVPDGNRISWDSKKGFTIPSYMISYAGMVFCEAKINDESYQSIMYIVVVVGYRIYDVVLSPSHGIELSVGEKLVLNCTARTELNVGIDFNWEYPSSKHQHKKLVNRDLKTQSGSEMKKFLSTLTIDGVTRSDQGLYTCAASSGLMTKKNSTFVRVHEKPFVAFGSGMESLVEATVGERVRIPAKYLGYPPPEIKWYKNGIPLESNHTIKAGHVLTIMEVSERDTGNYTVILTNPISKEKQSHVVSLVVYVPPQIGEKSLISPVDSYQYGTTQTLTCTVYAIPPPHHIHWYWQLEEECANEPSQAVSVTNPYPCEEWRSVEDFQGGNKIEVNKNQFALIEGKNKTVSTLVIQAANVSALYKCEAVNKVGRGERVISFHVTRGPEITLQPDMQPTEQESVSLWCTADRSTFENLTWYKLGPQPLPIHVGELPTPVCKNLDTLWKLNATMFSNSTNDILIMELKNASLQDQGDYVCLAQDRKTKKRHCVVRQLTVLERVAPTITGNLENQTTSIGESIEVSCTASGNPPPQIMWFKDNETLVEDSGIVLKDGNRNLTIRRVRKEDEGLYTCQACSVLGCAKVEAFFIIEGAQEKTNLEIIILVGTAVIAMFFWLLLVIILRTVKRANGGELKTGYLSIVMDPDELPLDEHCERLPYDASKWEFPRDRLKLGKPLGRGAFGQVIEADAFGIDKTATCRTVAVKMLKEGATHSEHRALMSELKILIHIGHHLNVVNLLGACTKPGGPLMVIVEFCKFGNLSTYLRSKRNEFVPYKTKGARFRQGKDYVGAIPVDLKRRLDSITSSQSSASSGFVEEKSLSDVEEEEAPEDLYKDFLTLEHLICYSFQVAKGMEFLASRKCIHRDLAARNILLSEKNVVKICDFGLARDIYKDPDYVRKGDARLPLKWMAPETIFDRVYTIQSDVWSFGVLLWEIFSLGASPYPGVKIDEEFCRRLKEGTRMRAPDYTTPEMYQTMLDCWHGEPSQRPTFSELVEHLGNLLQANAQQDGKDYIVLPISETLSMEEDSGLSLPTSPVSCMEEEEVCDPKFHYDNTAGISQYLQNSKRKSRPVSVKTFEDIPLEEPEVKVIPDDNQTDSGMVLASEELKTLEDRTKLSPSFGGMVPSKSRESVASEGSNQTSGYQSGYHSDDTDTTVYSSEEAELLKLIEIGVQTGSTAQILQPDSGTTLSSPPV
Protocol: as §1

[5] = molecular target: T5, Neurotrophic receptor kinase 1 (NRK1) (Homo sapiens, UniProt P04629); assay: Enzyme assay; format: biochemical
T5 construct: Eurofins
Protocol: as §1

[6] = molecular target: T6, Phosphodiesterase PDE10A2 (Homo sapiens, UniProt Q9Y233); assay: Enzyme assay; format: biochemical
T6 construct: Eurofins
T6 sequence (Q9Y233 267-1055 limits assumed): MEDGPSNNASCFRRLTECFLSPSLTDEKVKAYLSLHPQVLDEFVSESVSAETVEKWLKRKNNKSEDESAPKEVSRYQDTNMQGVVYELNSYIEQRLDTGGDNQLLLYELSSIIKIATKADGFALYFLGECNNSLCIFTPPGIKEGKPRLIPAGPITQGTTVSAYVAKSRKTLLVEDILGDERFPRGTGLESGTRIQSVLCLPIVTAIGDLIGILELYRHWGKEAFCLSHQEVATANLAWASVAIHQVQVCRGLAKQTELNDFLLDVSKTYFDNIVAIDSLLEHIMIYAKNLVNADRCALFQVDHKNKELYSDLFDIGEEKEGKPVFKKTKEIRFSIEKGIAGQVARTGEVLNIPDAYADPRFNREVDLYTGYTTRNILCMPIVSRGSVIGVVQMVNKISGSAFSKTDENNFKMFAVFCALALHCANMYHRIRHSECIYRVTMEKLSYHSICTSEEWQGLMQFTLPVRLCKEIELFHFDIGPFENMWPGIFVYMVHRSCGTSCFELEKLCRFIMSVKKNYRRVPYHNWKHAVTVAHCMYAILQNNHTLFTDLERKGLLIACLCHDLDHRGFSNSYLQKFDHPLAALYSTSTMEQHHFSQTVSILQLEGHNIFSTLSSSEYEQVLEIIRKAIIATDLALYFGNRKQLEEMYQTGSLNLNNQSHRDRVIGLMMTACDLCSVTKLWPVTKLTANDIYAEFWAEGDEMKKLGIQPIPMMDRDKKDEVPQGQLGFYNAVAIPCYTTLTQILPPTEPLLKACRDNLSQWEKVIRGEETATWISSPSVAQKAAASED
Protocol: as §1

Phosphodiesterase PDE4D2 = molecular target: T7, Phosphodiesterase PDE4D2 (Homo sapiens, UniProt Q08499); assay: Enzyme assay; format: biochemical
T7 construct: Eurofins
T7 sequence (Q08499 303-809 limits assumed): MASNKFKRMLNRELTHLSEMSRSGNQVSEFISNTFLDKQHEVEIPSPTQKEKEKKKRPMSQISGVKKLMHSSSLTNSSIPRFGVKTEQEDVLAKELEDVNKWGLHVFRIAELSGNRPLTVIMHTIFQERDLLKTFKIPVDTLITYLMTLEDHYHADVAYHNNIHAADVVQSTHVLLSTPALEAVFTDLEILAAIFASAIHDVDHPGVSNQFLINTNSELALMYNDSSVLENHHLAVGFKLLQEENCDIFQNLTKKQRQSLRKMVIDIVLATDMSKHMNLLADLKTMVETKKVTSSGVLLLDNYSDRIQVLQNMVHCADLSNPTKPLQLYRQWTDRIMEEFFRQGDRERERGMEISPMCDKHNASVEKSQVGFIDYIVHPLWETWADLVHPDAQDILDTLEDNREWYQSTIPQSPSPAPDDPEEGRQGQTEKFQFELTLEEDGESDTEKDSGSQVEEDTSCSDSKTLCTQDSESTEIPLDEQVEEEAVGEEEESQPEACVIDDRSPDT
Protocol: as §1

[7] = molecular target: T8, Prostaglandin-endoperoxide synthase 2 (COX2) (Homo sapiens, UniProt P35354); assay: Enzyme assay; format: biochemical
T8 construct: Eurofins
T8 sequence (P35354 18-604): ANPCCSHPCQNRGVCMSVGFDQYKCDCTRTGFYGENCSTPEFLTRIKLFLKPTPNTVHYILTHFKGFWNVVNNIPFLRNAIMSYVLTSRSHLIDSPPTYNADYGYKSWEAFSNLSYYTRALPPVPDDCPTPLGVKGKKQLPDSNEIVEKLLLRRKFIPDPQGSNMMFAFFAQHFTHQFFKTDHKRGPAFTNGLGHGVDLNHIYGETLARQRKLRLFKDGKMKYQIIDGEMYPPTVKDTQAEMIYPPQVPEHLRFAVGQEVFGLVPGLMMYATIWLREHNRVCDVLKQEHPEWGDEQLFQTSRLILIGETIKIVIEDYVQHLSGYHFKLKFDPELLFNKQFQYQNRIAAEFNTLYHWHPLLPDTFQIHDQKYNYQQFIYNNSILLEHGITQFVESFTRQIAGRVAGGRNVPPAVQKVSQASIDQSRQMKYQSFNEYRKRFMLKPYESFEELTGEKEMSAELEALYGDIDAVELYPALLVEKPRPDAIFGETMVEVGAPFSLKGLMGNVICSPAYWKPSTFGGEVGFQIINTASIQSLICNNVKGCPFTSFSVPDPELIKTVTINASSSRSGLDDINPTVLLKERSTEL
Protocol: as §1

Thromboxane A2 synthase = molecular target: T9, Thromboxane A2 synthase (Homo sapiens, UniProt P24557); assay: Enzyme assay; format: biochemical
T9 construct: Eurofins
T9 sequence (P24557 whole entry): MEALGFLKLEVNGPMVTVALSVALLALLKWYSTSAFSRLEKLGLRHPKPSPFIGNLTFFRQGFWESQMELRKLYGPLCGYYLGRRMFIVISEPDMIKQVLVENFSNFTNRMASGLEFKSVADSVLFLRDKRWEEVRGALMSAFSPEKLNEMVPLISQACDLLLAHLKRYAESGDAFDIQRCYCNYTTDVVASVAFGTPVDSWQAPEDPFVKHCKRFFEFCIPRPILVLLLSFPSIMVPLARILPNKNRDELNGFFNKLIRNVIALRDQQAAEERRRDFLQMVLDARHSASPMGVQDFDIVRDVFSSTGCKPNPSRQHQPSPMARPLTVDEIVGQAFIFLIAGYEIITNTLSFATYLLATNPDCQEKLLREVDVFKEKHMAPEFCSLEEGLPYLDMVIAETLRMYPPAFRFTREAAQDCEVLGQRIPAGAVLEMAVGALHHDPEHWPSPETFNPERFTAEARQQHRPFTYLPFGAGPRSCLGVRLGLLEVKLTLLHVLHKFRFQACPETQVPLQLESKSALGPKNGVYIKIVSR
Protocol: as §1

In the case of `Cn1cc2cc(-c3cc4[nH]nc(C5CC5)c4n(-c4ccc(OC(F)F)cc4)c3=O)ccc2n1` [AZ’9567], the “LogD (pH 7.4)” value (LogD (pH 7.4)) is reported as 3.4, the “rat plasma fraction unbound” value [1] is reported as 0.00614 and the “plasma SAM decrease, lower than the vehicle controls” value (SAM; 30 mg/kg BID) is reported as 70%. The “brain SAM change” value (SAM; 3 and 10 mg/kg BID) was “no significant change”, the “heart SAM decrease” value (SAM; all dose levels) was roughly 90% and the “liver SAM decrease” value (SAM; all doses) was ~ 45%. It also gave an IC50 (Aurora A kinase) of 84.1 µM, an IC50 [2] of 49.9 µM and an IC50 [3] of 1.6 µM. For the same molecule, the IC50 [4] was 9.5 µM, the IC50 [5] was 38.3 µM and the IC50 [6] was 10.8 µM. The IC50 (Phosphodiesterase PDE4D2) was 4.1 µM, the IC50 [7] was 44 µM and the IC50 (Thromboxane A2 synthase) was 9 µM.
